Test systems include OVCAR-5 ovarian; CCRF-CEM leukemia; UACC-257 melanoma; BT-549 breast; HOP-92 NSCLC; EKVX NSCLC; SF-295 CNS; MCF7 breast; SR leukemia; NCI-H522 lung.
Holding throughout (assay): NCI anticancer screen, dose series, 48 h

Data on 8 compounds can be found in PubChem BioAssay (NCI).

The structures appear in SMILES notation. Where “and” joins values, the source holds several entries; their conditions need not be identical. Identical values can stand only once.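 Five concentrations, 48 hours, 96-well plates. GI50 = concentration required for 50% inhibition of growth. At the TGI there is no net growth.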 Bounds are passed on as bounds.

`Cn1ncc(C#N)c1-c1ccc2c(c1)CN([C@H](CN)Cc1cccc(F)c1)C2=O`: the GI50 was 18.6 µM in the experiment with OVCAR-5 ovarian; 0.932 µM in the experiment with CCRF-CEM leukemia; 5.99 µM in the experiment with UACC-257 melanoma; 0.477 µM with BT-549 breast; 0.134 µM with HOP-92 NSCLC; 5.63 µM with EKVX NSCLC. The GI50 in the experiment on SF-295 CNS was 0.503 µM; in the experiment on MCF7 breast, 0.812 µM; in the experiment on SR leukemia it was 17.2 µM; with NCI-H522 lung, 17.6 µM. Moreover, the TGI in the experiment with OVCAR-5 ovarian is above 100 µM; in the experiment with CCRF-CEM leukemia, above 100 µM; in the experiment with UACC-257 melanoma, 66.6 µM; in the experiment with BT-549 breast, 12.1 µM; in the experiment with HOP-92 NSCLC it was 1.67 µM; with EKVX NSCLC, above 92.1 µM. In addition, the TGI was 24.9 µM in the experiment on SF-295 CNS, 25.4 µM with MCF7 breast, 50.7 µM with SR leukemia and 60.3 µM in the experiment on NCI-H522 lung.
For `Nc1[nH]nc2nc(-c3cc(Cl)ccc3Cl)cc(-c3ccc(F)cc3)c12`, the GI50 is 24.3 µM in the experiment on OVCAR-5 ovarian; 0.813 µM in the experiment on CCRF-CEM leukemia; 25.2 µM in the experiment with UACC-257 melanoma; 14.3 µM with BT-549 breast; 14.5 µM with HOP-92 NSCLC; 17.5 µM in the experiment with EKVX NSCLC. Moreover, the GI50 in the experiment on SF-295 CNS is 25.7 µM; in the experiment on MCF7 breast, 11.8 µM; in the experiment on SR leukemia it was 18 µM; in the experiment with NCI-H522 lung, 14.4 µM. Moreover, the TGI with OVCAR-5 ovarian amounted to 59.8 µM; in the experiment on CCRF-CEM leukemia, 11.3 µM; with UACC-257 melanoma, 68.3 µM; with BT-549 breast it was 31.3 µM; in the experiment on HOP-92 NSCLC it was 30 µM; in the experiment on EKVX NSCLC, 58.3 µM. Moreover, the TGI in the experiment with SF-295 CNS is 73.4 µM; in the experiment with MCF7 breast it was 37.5 µM; in the experiment on SR leukemia it was 69.2 µM; in the experiment with NCI-H522 lung, 31.5 µM.
For `Cc1nc2sc(C(=O)Nc3cccc(Br)c3C)c(N)c2cc1C(O)c1ccccc1` (configuration not stated), the GI50 was 0.061 µM in the experiment on OVCAR-5 ovarian; 0.0406 µM with CCRF-CEM leukemia; 1.46 µM in the experiment on UACC-257 melanoma; 0.044 µM in the experiment with BT-549 breast; 1.33 µM in the experiment on HOP-92 NSCLC; 0.283 µM in the experiment on EKVX NSCLC. Also, the GI50 with SF-295 CNS is 0.0335 µM; in the experiment with MCF7 breast, 0.0373 µM; in the experiment with SR leukemia, 0.0374 µM; with NCI-H522 lung, 0.0286 µM. Further, the TGI in the experiment with OVCAR-5 ovarian was above 60.2 µM; in the experiment with CCRF-CEM leukemia it was above 100 µM; with UACC-257 melanoma it was 27 µM; in the experiment on BT-549 breast it was 2.93 µM; in the experiment with HOP-92 NSCLC, 16.5 µM; in the experiment with EKVX NSCLC, 43.8 µM. Also, the TGI in the experiment on SF-295 CNS was 6.64 µM; in the experiment with MCF7 breast, 13.1 µM; with SR leukemia it was above 100 µM; in the experiment on NCI-H522 lung, 2.55 µM.
`CN1CCC2(CC1)N=C(SCC(=O)Nc1cnc3ccccc3c1)C(c1ccc(Br)cc1)=N2`: the GI50 in the experiment on OVCAR-5 ovarian was 2.43 µM; with CCRF-CEM leukemia, 2.21 µM; in the experiment on UACC-257 melanoma, 1.79 µM; in the experiment on BT-549 breast, 12 µM; in the experiment on HOP-92 NSCLC, 1.22 µM; in the experiment with EKVX NSCLC it was 2.51 µM. Also, the GI50 in the experiment on SF-295 CNS is 1.79 µM; in the experiment on MCF7 breast it was 1.8 µM; in the experiment with SR leukemia, 2.07 µM; in the experiment on NCI-H522 lung, 1.91 µM. Also, the TGI with OVCAR-5 ovarian is 7.33 µM; in the experiment on CCRF-CEM leukemia, 5.31 µM; with UACC-257 melanoma it was 3.31 µM; in the experiment with BT-549 breast, 24.4 µM; in the experiment with HOP-92 NSCLC, 3.35 µM; in the experiment on EKVX NSCLC, 10.2 µM. Further, the TGI with SF-295 CNS turned out to be 3.93 µM; in the experiment on MCF7 breast, 3.55 µM; in the experiment with SR leukemia, 5.29 µM; in the experiment with NCI-H522 lung it was 3.82 µM.
On to `CN1CCN(CCCNC(=O)c2c3c(n4ccccc24)C(=O)c2ncccc2C3=O)CC1`, for which the GI50 was 2.42 µM in the experiment on OVCAR-5 ovarian; 2.16 µM in the experiment on CCRF-CEM leukemia; 0.971 µM in the experiment on UACC-257 melanoma; 7.24 µM in the experiment with BT-549 breast; 3.03 µM with HOP-92 NSCLC; 1.61 µM in the experiment with EKVX NSCLC. In addition, the GI50 in the experiment on SF-295 CNS is 1.25 µM; in the experiment on MCF7 breast, 0.612 µM; with SR leukemia, 0.529 µM; with NCI-H522 lung it was 1.01 µM. Besides, the TGI with OVCAR-5 ovarian was above 53.2 µM; with CCRF-CEM leukemia, above 27.8 µM; with UACC-257 melanoma, 2.3 µM; in the experiment with BT-549 breast, 20.6 µM; in the experiment with HOP-92 NSCLC, 13.4 µM; with EKVX NSCLC, 5.94 µM. The TGI in the experiment with SF-295 CNS was 13.1 µM; with MCF7 breast it was 2.62 µM; in the experiment with SR leukemia it was above 26.2 µM; in the experiment with NCI-H522 lung, 3.86 µM.
`Cc1ccc(/C=N/NC(=O)c2ccccc2Oc2ccccc2)o1`: the GI50 with OVCAR-5 ovarian was above 93 µM; with CCRF-CEM leukemia, 30.9 µM; with UACC-257 melanoma it was 36.5 µM; in the experiment on BT-549 breast it was 28.4 µM; in the experiment with HOP-92 NSCLC, 12.5 µM; in the experiment on EKVX NSCLC it was 38.8 µM. Also, the GI50 was 27.9 µM in the experiment with SF-295 CNS, 32.9 µM with MCF7 breast, 40 µM with SR leukemia and 25.8 µM with NCI-H522 lung. For the same compound, the TGI with OVCAR-5 ovarian is above 100 µM; in the experiment on CCRF-CEM leukemia it was above 100 µM; in the experiment with UACC-257 melanoma, above 100 µM; with BT-549 breast, above 100 µM; in the experiment on HOP-92 NSCLC, above 95.4 µM; in the experiment on EKVX NSCLC, above 100 µM. For the same compound, the TGI with SF-295 CNS, in the experiment with MCF7 breast, in the experiment on SR leukemia and in the experiment with NCI-H522 lung was above 100 µM throughout.
Take `O=C(O)CCC(c1ccccc1)(c1ccccc1)c1ccccc1`: the TGI in the experiment on OVCAR-5 ovarian is above 100 µM; in the experiment on CCRF-CEM leukemia it was above 100 µM; with UACC-257 melanoma, above 100 µM; in the experiment with BT-549 breast, above 100 µM; with HOP-92 NSCLC, above 73.9 µM; in the experiment on EKVX NSCLC it was above 100 µM. The TGI in the experiment with SF-295 CNS was above 100 µM; in the experiment with MCF7 breast, above 71 µM; with SR leukemia, above 89 µM; with NCI-H522 lung, above 100 µM. The GI50 is 80.1 µM in the experiment on BT-549 breast and 55.3 µM with NCI-H522 lung.
`COc1cccc2c1C(=O)c1c(O)c3c(c(O)c1C2=O)C[C@@](O)(C(=O)CO)CC3OC1CC(N)C(OC2CCCCO2)C(C)O1` (some centres not stated): the GI50 in the experiment on OVCAR-5 ovarian was 0.0682 µM; in the experiment on CCRF-CEM leukemia, 0.00327 µM; with UACC-257 melanoma, 0.129 µM; in the experiment with EKVX NSCLC it was 0.156 µM; in the experiment with SF-295 CNS, 0.00963 µM; in the experiment on SR leukemia, below 0.001 µM. Besides, in the experiment on NCI-H522 lung, the GI50 is 0.0409 µM. The TGI was 2.08 µM and 8.5 µM in the experiment on OVCAR-5 ovarian; 0.455 µM and 3.42 µM in the experiment on UACC-257 melanoma; 0.481 µM in the experiment on BT-549 breast; 0.537 µM with HOP-92 NSCLC; 1.02 µM and 7.26 µM in the experiment on EKVX NSCLC; 1.13 µM and 2.44 µM with SF-295 CNS. The TGI is 1.08 µM with MCF7 breast; 0.282 µM and 1.72 µM with NCI-H522 lung.
